{"source": "PubChem BioAssay AID1996"}
{"details": "buffer; pH 7.4; 200.0 µM", "units": {"solubility kinetic": "µg/mL"}}
{"smiles": "CN(C)C(=O)Oc1ccc(NC(=O)N2CCOCC2)cc1", "solubility kinetic": 43.9}
{"smiles": "COc1cccc(CNc2nc3ccccc3n2C(C)C)c1O", "solubility kinetic": 2.2}
{"smiles": "CCCc1ccc(OCC(O)CN2CCCC2)cc1.Cl", "note": "(configuration not stated)", "solubility kinetic": 37.2}
{"smiles": "Cc1ccc2nc(NC(=O)COC(=O)c3ccccn3)sc2c1", "solubility kinetic": 32.1}
{"smiles": "CCN(CC)C1CCS(=O)(=O)C1.Cl", "note": "(configuration not stated)", "solubility kinetic": "> 34.2"}
{"smiles": "Cc1ccc(NC(=O)CSc2nnc(/N=C/N(C)C)s2)cc1", "solubility kinetic": "> 50.3"}
{"smiles": "CCCCn1c(N)c(N(CC)C(=O)c2cccc(C)c2)c(=O)[nH]c1=O", "solubility kinetic": "> 51.7"}
{"smiles": "CCOC(=O)c1cccc(NC(=O)CCc2ccccc2)c1", "solubility kinetic": 33.1}
{"smiles": "O=[N+]([O-])c1ccc2c(c1N1CCCCC1)=NC1(CCCCC1)[N+]=2[O-]", "solubility kinetic": 47.1}
{"smiles": "CCOc1ccc(C(=O)NCC(=O)NCCOc2ccc(C)cc2)cc1", "solubility kinetic": 10.4}
{"smiles": "Cc1cc(C)cc(NS(=O)(=O)c2c(C)[nH]c(=O)[nH]c2=O)c1", "solubility kinetic": "> 46.4"}
{"smiles": "CN(CCN1CCOCC1)Cc1nc(-c2ccccc2)no1", "solubility kinetic": "> 45.4"}
{"smiles": "O=c1[nH]c2cccnc2n1-c1ccc([N+](=O)[O-])cc1", "solubility kinetic": 13.3}
{"smiles": "O=C1CS/C(=C/C(=O)c2cccc(Cl)c2)N1", "solubility kinetic": 10.5}
{"smiles": "COc1ccc(CCNC(=S)NC(=O)c2ccccc2)cc1C", "solubility kinetic": 0.8}
{"smiles": "COc1cccc(Nc2nc(C)cc(C)c2C(N)=O)c1", "solubility kinetic": "> 40.7"}
{"smiles": "COc1ccc(N2CCCC2=N)c(OC)c1.Cl", "solubility kinetic": "> 38.5"}
{"smiles": "COC(=O)/C=C1\\N/C(=N\\c2nc(C)cc(C)n2)N(c2ccccc2)C1=O", "solubility kinetic": "> 52.7"}
{"smiles": "N#CCc1c(C#N)c(N)nc(N2CCN(C=O)CC2)c1C#N", "solubility kinetic": "> 44.3"}
{"smiles": "COc1ccc(C(=O)NCC(O)CN2CCOCC2)cc1[N+](=O)[O-]", "note": "(configuration not stated)", "solubility kinetic": 38.9}
{"smiles": "CCOC(=O)C1CCN(C(=O)C(C)Sc2nnc3ccccn23)CC1", "note": "(configuration not stated)", "solubility kinetic": "> 54.4"}
{"smiles": "NS(=O)(=O)c1ccc(CNC(=S)NC(=O)c2ccco2)cc1", "solubility kinetic": "> 50.9"}
{"smiles": "COc1cccc(Nc2ccc(-n3ccnc3)nn2)c1", "solubility kinetic": "> 40.1"}
{"smiles": "O=C(NCc1ccccc1Cl)C1CC(=O)N(Cc2ccccc2)C1", "note": "(configuration not stated)", "solubility kinetic": "> 51.4"}
{"smiles": "CC(=Nc1ccccc1N)c1c(O)n(C)c(=O)n(C)c1=O", "solubility kinetic": 3.6}
{"smiles": "C=CC(=O)NN(C)c1ncc(C(F)(F)F)cc1Cl", "solubility kinetic": "> 41.9"}
{"smiles": "COc1cc(NC(=S)NCCO)c(OC)cc1Cl", "solubility kinetic": "> 43.6"}
{"smiles": "CCOC(=O)/C(=C/c1cn(C)c2ccccc12)NC(=O)c1ccccc1", "solubility kinetic": 3.2}
{"smiles": "COc1ccc(Cl)cc1C(=O)Nc1ccc(NC(=O)C(C)C)cc1", "solubility kinetic": 0.5}
{"smiles": "CC(=O)c1ccc(S(=O)(=O)NCc2cccnc2)cc1", "solubility kinetic": "> 43.6"}
{"smiles": "CC(C)CC1(C)NC(=O)N(CC(=O)Nc2ccc3c(c2)CCC3)C1=O", "note": "(configuration not stated)", "solubility kinetic": "> 51.5"}
{"smiles": "O=C(/C=C\\c1ccco1)NC(=S)Nc1ccccc1O", "solubility kinetic": 42.6}
{"smiles": "CCOC(=O)N1CCN(CCC(=O)Nc2ccc(F)c(F)c2)CC1", "solubility kinetic": "> 51.2"}
{"smiles": "CC(C)CNc1c2c(nc3ccccc13)CCC2.Cl", "solubility kinetic": "> 41.5"}
{"smiles": "CCC1CCCCN1Cc1c(O)ccc2c(=O)c(-c3ccccc3)coc12", "note": "(configuration not stated)", "solubility kinetic": 50.1}
{"smiles": "COc1ccccc1/C=N/OC(=O)c1ccc(C)cc1", "solubility kinetic": "< 0.6"}
{"smiles": "C=Cn1cc[n+](CC(=O)c2ccc(Cl)cc2)c1.[Br-]", "solubility kinetic": 43.3}
{"smiles": "O=C(COC(=O)c1cnc(Cl)c(Cl)c1)NC1CC1", "solubility kinetic": "> 43.4"}
{"smiles": "O=C(Nc1cccc(O)c1)c1ccc(S(=O)(=O)N2CCCCCC2)cc1", "solubility kinetic": 3.7}
{"smiles": "CNC(=O)c1[nH]cnc1C(=O)Nc1ccccn1", "solubility kinetic": "> 36.8"}
{"smiles": "COc1ccc(C(=O)NCCCNC(=O)c2ccco2)cc1OC", "solubility kinetic": "> 49.9"}
{"smiles": "NC(=O)c1ccc(CN2CCc3ccccc3C2)cc1", "solubility kinetic": 34.5}
{"smiles": "COc1cccc(NC(=O)CC2Oc3ccccc3NC2=O)c1", "note": "(configuration not stated)", "solubility kinetic": 6.7}
{"smiles": "CCCCn1c(O)c(C(C)=NCc2ccc3c(c2)OCO3)c(=O)[nH]c1=O", "solubility kinetic": 0.6}
{"smiles": "O=[N+]([O-])c1ccccc1S(=O)(=O)NCCSCc1ccco1", "solubility kinetic": 51}
{"smiles": "COc1ccc(CCOC(=O)c2ccc(N)c([N+](=O)[O-])c2)cc1", "solubility kinetic": 1.1}
{"smiles": "O=C(COC(=O)Cc1ccsc1)Nc1cccc(Cl)c1", "solubility kinetic": "> 46.5"}
